Reference: US7101882B2, “Morpholin-acetamide derivatives for the treatment of inflammatory diseases” (Glaxo Group Limited, priority 2000, dated 2006)

Target: eosinophils
Experiment: Eosinophil chemotaxis assay (assay (b))
Assay type: cell-based, human
Procedure: (b) Eosinophil Chemotaxis Assay.
Compounds were evaluated for their inhibitory effect on eosinophil chemotaxis. Eosinophils were purified from human peripheral blood by standard CD16 cell depletion using a Miltenyi cell separation column and a magnetic Super Macs magnet as previously described (Motegi & Kita, 1998; J. Immunology. 161:4340-6). Cells were re-suspended in RPMI 1640/10% FCS solution and incubated with calcein-AM (Molecular Probes) at 37° C. for 30 mins. Following incubation, the eosinophils were centrifuged at 400 g for 5 min and re-suspended in RPMI/FCS at 2.2 million/ml. Cells were then incubated in the presence of increasing concentration of compounds (1 pM to 30 μM) at 37° C. for 30 mins. For control responses cells were incubated with RPMI/FCS only. The agonist eotaxin (either a concentration response curve or for the functional inhibition curves an EC80 concentration) was added to the lower chamber of a 96 well chemotaxis plate (5 μm filter: Receptor Technologies). […] Cells remaining on top of the chemotaxis filter were removed and the number of eosinophils which had migrated were quantified by reading the plate on a fluorescent plate reader. Inhibition curves for the effect of compounds on eosinophil chemotaxis were analysed by fitting the data with a four parameter logistic equation. […]

CCR-3 Eosinophil Chemotaxis Assay (fpKi): 8.2
Structure (SMILES): NS(=O)(=O)c1cccc(CC(=O)NC[C@H]2CN(Cc3ccc(Cl)c(Cl)c3)CCO2)c1 [Example 162, 2-[3-(Aminosulfonyl)phenyl]-N-{[(2S)-4-(3,4-dichlorobenzyl)morpholin-2-yl]methyl}acetamide]
